Reference: ChEMBL document CHEMBL5465560, “Selectivity Literature for EUbOPEN Chemogenomic Library” (2024)

Key:
[1] = biological target: T1, Serine/threonine-protein kinase Nek5 (Homo sapiens) (UniProt Q6P3R8); assay: Selectivity interaction (KinomeScan (DiscoverX)) EUB0000229b NEK5; settings: at 10 µM
T1 sequence (whole entry): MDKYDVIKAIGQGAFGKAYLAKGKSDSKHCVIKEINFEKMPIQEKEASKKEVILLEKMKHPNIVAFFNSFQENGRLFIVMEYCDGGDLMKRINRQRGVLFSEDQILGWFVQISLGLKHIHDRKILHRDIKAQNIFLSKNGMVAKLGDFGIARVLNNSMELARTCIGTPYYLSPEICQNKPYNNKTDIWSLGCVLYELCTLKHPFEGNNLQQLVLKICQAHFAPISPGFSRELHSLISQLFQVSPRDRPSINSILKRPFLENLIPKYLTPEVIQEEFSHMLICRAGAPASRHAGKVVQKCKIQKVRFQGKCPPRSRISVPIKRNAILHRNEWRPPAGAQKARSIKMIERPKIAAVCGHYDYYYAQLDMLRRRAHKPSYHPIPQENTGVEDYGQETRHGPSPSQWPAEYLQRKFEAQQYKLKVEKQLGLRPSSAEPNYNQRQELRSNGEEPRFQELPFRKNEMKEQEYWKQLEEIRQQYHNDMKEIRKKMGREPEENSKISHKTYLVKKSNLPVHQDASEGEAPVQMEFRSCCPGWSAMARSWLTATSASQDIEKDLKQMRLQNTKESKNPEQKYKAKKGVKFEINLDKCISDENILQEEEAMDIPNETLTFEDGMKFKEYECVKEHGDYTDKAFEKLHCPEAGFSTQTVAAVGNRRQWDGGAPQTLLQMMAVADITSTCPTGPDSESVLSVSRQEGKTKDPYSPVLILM

[2] = biological target: T2, Ephrin type-A receptor 8 (Homo sapiens) (UniProt P29322); assay: Selectivity interaction (KinomeScan (DiscoverX)) EUB0000655a EPHA8; settings: at 10 µM
T2 sequence (whole entry): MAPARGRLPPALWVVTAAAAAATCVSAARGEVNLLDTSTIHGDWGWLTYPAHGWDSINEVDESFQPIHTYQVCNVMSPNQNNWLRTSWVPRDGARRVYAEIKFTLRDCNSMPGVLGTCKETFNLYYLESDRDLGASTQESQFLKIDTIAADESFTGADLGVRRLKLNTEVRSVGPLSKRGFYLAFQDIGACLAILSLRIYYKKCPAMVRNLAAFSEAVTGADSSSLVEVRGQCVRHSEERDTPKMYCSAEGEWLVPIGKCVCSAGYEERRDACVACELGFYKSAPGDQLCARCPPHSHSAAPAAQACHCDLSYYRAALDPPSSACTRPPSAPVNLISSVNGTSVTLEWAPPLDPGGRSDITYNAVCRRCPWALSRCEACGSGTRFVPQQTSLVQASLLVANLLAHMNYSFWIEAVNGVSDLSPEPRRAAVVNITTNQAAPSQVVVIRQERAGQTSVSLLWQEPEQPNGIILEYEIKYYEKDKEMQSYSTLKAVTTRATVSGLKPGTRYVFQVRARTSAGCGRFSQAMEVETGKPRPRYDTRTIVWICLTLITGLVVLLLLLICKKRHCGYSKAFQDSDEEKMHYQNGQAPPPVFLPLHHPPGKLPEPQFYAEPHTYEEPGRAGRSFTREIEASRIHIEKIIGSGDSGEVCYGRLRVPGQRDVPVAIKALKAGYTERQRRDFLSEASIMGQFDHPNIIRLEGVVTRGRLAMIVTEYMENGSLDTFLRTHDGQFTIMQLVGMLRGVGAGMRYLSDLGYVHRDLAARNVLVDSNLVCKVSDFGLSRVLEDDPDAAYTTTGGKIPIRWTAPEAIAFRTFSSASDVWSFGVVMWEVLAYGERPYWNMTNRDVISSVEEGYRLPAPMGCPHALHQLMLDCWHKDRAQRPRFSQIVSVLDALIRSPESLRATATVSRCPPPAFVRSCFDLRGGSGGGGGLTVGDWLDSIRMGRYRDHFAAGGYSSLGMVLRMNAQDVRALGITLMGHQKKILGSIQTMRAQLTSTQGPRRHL

[3] = biological target: Dual specificity tyrosine-phosphorylation-regulated kinase 1A (Homo sapiens, UniProt Q13627); assay: Selectivity interaction (ProQinase) EUB0000171b DYRK1A
[4] = biological target: Transient receptor potential cation channel subfamily M member 6 (Homo sapiens) (UniProt Q9BX84); assay: Selectivity interaction (KinomeScan (DiscoverX)) EUB0000666a TRPM6; settings: at 10 µM
[5] = biological target: Proto-oncogene tyrosine-protein kinase Src (Homo sapiens, UniProt P12931); assay: Selectivity interaction (Millipore kinase profiler) EUB0000124b SRC; settings: at 10 µM
[6] = biological target: Tyrosine-protein kinase JAK2 (Homo sapiens, UniProt O60674); assay: Selectivity interaction (Enyzmatic assay) EUB0000601a JAK2
[7] = biological target: Ephrin type-A receptor 2 (Homo sapiens) (UniProt P29317); settings: at 10 µM
[8] = biological target: Mitogen-activated protein kinase 3 (Homo sapiens, UniProt P27361); assay: Selectivity interaction (Kinase panel (Invitrogen)) EUB0000639a MAPK3; settings: at 200 nM
Ephrin type-A receptor 4 = Ephrin type-A receptor 4 (Homo sapiens, UniProt P54764); assay: Selectivity interaction (KinomeScan (DiscoverX)) EUB0001049a EPHA4; settings: at 1 µM
[9] = biological target: T3, Tyrosine-protein kinase ZAP-70 (Homo sapiens) (UniProt P43403); assay: Selectivity interaction (KinomeScan (DiscoverX)) EUB0000618a ZAP70; settings: at 10 µM
T3 sequence (whole entry): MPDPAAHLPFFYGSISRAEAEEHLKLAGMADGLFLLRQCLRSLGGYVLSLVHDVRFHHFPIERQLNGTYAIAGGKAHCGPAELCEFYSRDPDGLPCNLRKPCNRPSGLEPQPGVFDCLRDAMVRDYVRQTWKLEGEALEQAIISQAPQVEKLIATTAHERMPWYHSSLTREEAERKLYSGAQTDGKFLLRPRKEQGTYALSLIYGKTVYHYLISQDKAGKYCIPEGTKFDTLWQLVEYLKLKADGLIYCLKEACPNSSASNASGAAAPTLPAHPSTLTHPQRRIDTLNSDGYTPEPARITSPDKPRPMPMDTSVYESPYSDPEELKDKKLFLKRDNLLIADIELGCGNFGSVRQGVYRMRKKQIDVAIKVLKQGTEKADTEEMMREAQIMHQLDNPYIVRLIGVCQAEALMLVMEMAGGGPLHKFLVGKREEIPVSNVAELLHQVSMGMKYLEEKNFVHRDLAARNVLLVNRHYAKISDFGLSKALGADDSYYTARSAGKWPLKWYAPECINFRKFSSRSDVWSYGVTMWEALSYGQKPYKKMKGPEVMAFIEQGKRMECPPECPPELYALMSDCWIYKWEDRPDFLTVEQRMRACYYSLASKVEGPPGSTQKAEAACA

Proto-oncogene tyrosine-protein kinase Src, sequence (P12931 2-536 limits assumed): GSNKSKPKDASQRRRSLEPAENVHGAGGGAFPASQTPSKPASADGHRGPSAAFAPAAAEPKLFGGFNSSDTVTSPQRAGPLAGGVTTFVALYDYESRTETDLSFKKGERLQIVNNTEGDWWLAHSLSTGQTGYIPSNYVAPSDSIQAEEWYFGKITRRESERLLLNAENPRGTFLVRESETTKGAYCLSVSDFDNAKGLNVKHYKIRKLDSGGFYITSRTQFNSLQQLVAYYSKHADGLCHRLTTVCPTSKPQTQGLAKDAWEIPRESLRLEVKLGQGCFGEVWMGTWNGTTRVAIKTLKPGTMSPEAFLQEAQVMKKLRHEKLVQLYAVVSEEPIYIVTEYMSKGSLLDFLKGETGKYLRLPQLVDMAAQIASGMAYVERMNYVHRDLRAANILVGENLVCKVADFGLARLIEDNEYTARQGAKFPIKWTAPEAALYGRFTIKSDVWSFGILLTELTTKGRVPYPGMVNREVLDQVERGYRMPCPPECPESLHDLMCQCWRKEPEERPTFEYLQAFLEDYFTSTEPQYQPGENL
Transient receptor potential cation channel subfamily M member 6 (Homo sapiens), sequence (Q9BX84 whole entry): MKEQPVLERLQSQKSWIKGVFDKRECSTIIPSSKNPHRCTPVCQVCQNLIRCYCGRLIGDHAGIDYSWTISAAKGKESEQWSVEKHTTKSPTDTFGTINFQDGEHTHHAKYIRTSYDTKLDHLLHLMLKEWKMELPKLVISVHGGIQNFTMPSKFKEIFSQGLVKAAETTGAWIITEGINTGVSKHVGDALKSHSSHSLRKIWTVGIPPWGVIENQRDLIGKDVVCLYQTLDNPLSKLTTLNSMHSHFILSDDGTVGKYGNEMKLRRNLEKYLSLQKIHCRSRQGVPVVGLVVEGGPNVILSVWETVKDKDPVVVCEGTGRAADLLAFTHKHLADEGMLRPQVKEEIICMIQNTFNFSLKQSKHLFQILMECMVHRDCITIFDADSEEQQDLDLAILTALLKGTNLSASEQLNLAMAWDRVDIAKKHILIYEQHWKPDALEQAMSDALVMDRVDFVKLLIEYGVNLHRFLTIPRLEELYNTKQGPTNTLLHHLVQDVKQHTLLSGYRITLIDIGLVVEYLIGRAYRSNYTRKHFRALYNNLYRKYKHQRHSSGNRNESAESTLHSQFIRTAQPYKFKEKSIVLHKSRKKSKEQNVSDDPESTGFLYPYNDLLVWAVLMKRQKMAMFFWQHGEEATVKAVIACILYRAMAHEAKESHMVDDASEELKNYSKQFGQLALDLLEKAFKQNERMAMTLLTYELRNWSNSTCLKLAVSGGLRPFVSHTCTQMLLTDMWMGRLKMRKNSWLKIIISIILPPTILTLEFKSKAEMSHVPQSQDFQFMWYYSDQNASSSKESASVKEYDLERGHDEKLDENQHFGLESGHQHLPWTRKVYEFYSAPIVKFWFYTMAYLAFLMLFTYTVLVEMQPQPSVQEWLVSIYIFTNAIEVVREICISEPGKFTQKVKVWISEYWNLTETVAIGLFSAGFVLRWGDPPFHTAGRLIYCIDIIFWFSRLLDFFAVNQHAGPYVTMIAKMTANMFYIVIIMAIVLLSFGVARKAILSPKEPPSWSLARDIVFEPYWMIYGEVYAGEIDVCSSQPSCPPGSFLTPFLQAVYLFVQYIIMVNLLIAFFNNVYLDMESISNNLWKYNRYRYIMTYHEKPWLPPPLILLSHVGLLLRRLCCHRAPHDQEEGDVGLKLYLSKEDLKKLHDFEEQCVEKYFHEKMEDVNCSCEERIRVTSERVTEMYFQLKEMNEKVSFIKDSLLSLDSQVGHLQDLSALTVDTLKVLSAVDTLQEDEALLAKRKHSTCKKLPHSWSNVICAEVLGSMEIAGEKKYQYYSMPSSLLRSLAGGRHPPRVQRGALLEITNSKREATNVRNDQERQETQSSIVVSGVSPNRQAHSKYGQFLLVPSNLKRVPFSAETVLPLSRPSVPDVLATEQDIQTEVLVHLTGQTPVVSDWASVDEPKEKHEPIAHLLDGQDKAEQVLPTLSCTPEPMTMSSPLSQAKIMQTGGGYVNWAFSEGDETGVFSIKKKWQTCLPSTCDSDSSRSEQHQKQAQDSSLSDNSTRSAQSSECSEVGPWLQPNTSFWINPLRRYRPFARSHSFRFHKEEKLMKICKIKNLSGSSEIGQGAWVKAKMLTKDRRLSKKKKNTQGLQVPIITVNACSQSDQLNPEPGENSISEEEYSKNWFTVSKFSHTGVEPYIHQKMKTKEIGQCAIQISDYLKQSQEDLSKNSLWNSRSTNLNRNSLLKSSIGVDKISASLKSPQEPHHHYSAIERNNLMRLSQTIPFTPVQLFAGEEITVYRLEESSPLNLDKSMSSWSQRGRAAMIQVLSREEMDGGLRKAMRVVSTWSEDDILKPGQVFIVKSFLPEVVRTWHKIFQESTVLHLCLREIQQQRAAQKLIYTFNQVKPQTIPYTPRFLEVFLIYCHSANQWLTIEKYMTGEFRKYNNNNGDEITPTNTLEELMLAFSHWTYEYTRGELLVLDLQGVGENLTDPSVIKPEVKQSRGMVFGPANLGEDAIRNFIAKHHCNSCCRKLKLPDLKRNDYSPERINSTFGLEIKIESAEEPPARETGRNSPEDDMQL
Tyrosine-protein kinase JAK2, sequence (O60674 whole entry): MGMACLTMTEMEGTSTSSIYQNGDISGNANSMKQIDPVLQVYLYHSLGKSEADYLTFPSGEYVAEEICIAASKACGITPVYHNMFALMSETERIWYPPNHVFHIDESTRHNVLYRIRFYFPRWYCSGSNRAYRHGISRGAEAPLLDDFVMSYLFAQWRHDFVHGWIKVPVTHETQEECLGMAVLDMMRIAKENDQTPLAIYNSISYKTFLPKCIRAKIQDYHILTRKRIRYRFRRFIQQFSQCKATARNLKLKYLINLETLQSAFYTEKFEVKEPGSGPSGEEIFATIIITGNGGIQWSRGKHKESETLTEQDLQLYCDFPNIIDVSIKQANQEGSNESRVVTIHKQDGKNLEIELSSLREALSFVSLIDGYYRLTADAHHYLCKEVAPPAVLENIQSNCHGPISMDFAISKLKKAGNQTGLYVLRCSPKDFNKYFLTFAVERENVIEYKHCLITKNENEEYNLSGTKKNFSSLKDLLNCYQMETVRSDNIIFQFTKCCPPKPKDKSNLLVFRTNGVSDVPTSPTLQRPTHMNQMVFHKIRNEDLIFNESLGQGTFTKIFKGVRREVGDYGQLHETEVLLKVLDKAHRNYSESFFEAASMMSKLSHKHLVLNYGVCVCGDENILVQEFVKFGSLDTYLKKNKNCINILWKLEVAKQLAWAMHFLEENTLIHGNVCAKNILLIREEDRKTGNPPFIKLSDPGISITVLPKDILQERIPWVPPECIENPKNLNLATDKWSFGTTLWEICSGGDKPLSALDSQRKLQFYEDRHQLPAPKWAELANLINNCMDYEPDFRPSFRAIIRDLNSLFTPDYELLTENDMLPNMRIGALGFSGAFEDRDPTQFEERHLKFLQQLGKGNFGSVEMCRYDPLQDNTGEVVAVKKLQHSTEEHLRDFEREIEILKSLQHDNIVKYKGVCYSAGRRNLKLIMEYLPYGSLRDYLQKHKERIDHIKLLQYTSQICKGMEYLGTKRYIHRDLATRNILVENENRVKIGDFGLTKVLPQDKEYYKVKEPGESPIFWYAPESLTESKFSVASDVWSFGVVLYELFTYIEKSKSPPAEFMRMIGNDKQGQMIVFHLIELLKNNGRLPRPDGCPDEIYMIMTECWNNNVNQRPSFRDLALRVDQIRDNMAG
Ephrin type-A receptor 4, sequence (P54764 whole entry): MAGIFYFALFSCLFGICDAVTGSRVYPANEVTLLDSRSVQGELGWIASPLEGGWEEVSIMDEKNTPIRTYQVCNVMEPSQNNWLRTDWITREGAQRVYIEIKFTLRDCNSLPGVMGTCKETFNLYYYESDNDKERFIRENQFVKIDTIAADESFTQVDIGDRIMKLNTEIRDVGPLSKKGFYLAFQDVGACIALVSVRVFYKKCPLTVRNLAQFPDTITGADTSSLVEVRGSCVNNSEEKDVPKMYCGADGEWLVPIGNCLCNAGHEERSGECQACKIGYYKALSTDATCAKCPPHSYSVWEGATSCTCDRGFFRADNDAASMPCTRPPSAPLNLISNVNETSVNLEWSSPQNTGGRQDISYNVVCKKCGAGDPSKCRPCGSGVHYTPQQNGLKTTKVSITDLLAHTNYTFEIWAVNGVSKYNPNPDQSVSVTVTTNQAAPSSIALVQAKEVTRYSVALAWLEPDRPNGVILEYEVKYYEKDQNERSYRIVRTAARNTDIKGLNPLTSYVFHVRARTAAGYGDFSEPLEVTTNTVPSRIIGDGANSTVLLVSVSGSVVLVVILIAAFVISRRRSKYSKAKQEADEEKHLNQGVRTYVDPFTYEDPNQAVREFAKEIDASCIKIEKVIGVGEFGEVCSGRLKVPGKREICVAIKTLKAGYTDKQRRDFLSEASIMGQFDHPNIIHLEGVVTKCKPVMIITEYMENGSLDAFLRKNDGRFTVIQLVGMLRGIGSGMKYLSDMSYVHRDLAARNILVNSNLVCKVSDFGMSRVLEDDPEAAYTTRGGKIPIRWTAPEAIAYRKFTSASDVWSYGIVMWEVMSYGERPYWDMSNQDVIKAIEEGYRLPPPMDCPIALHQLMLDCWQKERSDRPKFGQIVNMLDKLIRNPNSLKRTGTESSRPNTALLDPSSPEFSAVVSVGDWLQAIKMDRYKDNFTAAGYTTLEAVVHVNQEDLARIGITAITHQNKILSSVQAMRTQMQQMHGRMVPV
Mitogen-activated protein kinase 3, sequence (P27361 whole entry): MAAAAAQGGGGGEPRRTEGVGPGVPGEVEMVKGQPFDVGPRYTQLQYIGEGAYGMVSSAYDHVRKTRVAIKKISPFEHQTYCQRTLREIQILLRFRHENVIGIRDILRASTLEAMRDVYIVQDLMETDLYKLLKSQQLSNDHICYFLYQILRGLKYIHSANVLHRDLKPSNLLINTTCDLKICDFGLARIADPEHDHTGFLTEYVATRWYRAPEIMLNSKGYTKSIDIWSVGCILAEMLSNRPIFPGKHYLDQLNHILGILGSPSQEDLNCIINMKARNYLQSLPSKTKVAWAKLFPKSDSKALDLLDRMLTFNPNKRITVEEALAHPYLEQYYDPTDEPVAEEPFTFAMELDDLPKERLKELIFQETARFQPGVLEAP

COc1cc(N(C)c2ccnc3ccc(C(F)(F)F)cc23)cc(OC)c1OC
% binding [1]: 93%

CN(C)CCOc1ccc(-c2nc(-c3ccncc3)c(-c3ccc4c(c3)CC/C4=N\O)[nH]2)cc1
% of control [2]: 100%

C=CC(=O)Nc1cccc(C(=O)Nc2ccc(Nc3cc(-c4[nH]c(SC)nc4C)ccn3)cc2)c1
% of control ([3]; at 1 µM): 92% | % of control ([3]; at 5 µM): 70%

O=C(NOC[C@H](O)CO)c1ccc(F)c(F)c1Nc1ccc(I)cc1F
% of control [4]: 100%

CC(=O)Nc1cccc(-n2c(=O)n(C3CC3)c(=O)c3c(Nc4ccc(I)cc4F)n(C)c(=O)c(C)c32)c1
% of control [5]: 82%

CCc1cc(Nc2nccc(-c3c(-c4ccc(OC)c(C(=O)Nc5c(F)cccc5F)c4)nc4ccccn34)n2)c(OC)cc1N1CCC(N2CCN(S(C)(=O)=O)CC2)CC1
IC50 [6]: > 16 µM

Cc1cc([C@@H](C)Nc2ccccc2C(=O)O)c2nc(N3CCOCC3)cc(=O)n2c1 [AZD-6482]
% of control [7]: 70%

CC[C@@H]1[C@H](F)C(=O)N[C@@H]1COc1nccc2cc(C(N)=O)c(OC)cc12 [ZIMLOVISERTIB]
% of inhibition [8]: 4.09%

COc1cc(Nc2nc(C)cc(-c3cnn4nc(OC)ccc34)n2)cc(C(F)(F)F)c1
% of control (Ephrin type-A receptor 4): 100%

O[C@H]1CC[C@H](Nc2ncc3nc(Nc4c(F)cc(F)cc4F)n([C@H]4CCOC4)c3n2)CC1
% of control [9]: 100%
